Measured values published in ChEMBL document CHEMBL1201862, “PubChem BioAssay data set” (2004).
Calls of active or inactive are those of the source.

Key:
[1] = target: T1, Aminopeptidase N (Plasmodium falciparum FcB1/Columbia, UniProt O96935); assay: P. falciparum M1AAP inhibitors, biochemical, fluorogenic H-Leu-NHMec substrate, 1536-well (AID 1445); parameters: species or system Plasmodium falciparum 3D7, 3D7
T1 sequence (O96935 whole entry): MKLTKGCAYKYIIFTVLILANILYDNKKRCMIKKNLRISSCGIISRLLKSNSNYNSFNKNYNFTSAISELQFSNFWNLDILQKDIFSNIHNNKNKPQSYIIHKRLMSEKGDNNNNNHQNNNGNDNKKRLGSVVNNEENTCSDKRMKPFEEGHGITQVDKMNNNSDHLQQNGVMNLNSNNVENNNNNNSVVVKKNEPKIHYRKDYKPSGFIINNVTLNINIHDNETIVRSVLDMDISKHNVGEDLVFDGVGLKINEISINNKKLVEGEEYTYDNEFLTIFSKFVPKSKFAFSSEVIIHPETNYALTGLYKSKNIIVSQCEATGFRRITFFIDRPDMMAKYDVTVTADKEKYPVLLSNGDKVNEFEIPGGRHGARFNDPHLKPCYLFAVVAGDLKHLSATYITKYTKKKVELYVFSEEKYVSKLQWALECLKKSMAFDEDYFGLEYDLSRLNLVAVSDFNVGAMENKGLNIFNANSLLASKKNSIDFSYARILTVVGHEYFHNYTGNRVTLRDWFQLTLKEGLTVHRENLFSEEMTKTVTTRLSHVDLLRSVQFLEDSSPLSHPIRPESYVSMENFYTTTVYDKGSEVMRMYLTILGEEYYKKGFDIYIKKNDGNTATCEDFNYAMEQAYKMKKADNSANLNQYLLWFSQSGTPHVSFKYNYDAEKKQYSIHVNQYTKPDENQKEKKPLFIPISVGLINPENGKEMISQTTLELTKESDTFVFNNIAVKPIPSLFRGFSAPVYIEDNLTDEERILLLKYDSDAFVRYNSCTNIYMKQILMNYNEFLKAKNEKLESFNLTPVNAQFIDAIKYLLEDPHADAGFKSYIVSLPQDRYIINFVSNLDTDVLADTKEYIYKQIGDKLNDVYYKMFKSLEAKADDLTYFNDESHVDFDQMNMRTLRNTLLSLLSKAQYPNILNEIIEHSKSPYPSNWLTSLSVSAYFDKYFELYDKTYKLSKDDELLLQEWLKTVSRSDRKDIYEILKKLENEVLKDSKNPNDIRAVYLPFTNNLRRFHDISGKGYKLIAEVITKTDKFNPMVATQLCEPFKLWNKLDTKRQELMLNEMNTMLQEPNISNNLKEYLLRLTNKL

[2] = target: DNA dC->dU-editing enzyme APOBEC-3G (Homo sapiens, UniProt Q9HC16); assay: Dose Response confirmation of small molecule APOBEC3G DNA Deaminase Inhibitors via a fluorescence-based single-stranded DNA deaminase assay. [Related pubchem assays (depositor defined):AID493012, AID493028]; assay type: functional
Chain of DNA dC->dU-editing enzyme APOBEC-3G (Q9HC16 whole entry): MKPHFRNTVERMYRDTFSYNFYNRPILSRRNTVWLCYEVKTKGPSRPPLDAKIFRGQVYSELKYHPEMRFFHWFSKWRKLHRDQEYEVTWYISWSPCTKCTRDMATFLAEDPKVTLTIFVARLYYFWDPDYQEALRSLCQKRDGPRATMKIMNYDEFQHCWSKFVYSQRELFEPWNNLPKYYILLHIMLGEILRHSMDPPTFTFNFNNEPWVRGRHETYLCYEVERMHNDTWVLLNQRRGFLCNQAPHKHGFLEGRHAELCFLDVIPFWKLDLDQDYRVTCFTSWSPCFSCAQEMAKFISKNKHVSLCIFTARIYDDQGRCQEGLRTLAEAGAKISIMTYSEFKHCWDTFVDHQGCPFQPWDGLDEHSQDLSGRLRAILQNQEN

[3] = HEp-2 cell cytotoxicity, dose response, cytotoxicity control for RSV inhibitor project, HTS (AID 2410); assay type: functional; conditions: human respiratory syncytial virus
[4] = target: T2, Fatty acid synthase (Homo sapiens, UniProt P49327); assay: FAS thioesterase domain inhibitors, dose response, biochemical, endpoint fluorescence intensity, uHTS hits (AID 624327); assay type: functional;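 also: fluorescence from hydrolysis of an O-methyl fluorescein acyl ester substrate by the enzyme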
[5] = cells
[6] = target: T2, Fatty acid synthase; assay: FAS thioesterase domain inhibitors, dose response, biochemical, kinetic fluorescence intensity (AID 624326); assay type: functional;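 also: rate of fluorescence rise from hydrolysis of a fluorogenic O-methyl fluorescein ester substrate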
[7] = target: Beta-galactosidase (Escherichia coli, UniProt Q8VNN2); assay: beta-galactosidase enzyme inhibitors and activators, dose response, artefact control for CCR6 antagonist project, biochemical, E. coli enzyme, set 3 (AID 504712); assay type: functional
[8] = target: Voltage-dependent T-type calcium channel subunit alpha-1H (Homo sapiens, UniProt O95180); assay type: functional;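 also: channel activity triggered by adding a high calcium stimulation buffer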
Chain of Voltage-dependent T-type calcium channel subunit alpha-1H (O95180 whole entry): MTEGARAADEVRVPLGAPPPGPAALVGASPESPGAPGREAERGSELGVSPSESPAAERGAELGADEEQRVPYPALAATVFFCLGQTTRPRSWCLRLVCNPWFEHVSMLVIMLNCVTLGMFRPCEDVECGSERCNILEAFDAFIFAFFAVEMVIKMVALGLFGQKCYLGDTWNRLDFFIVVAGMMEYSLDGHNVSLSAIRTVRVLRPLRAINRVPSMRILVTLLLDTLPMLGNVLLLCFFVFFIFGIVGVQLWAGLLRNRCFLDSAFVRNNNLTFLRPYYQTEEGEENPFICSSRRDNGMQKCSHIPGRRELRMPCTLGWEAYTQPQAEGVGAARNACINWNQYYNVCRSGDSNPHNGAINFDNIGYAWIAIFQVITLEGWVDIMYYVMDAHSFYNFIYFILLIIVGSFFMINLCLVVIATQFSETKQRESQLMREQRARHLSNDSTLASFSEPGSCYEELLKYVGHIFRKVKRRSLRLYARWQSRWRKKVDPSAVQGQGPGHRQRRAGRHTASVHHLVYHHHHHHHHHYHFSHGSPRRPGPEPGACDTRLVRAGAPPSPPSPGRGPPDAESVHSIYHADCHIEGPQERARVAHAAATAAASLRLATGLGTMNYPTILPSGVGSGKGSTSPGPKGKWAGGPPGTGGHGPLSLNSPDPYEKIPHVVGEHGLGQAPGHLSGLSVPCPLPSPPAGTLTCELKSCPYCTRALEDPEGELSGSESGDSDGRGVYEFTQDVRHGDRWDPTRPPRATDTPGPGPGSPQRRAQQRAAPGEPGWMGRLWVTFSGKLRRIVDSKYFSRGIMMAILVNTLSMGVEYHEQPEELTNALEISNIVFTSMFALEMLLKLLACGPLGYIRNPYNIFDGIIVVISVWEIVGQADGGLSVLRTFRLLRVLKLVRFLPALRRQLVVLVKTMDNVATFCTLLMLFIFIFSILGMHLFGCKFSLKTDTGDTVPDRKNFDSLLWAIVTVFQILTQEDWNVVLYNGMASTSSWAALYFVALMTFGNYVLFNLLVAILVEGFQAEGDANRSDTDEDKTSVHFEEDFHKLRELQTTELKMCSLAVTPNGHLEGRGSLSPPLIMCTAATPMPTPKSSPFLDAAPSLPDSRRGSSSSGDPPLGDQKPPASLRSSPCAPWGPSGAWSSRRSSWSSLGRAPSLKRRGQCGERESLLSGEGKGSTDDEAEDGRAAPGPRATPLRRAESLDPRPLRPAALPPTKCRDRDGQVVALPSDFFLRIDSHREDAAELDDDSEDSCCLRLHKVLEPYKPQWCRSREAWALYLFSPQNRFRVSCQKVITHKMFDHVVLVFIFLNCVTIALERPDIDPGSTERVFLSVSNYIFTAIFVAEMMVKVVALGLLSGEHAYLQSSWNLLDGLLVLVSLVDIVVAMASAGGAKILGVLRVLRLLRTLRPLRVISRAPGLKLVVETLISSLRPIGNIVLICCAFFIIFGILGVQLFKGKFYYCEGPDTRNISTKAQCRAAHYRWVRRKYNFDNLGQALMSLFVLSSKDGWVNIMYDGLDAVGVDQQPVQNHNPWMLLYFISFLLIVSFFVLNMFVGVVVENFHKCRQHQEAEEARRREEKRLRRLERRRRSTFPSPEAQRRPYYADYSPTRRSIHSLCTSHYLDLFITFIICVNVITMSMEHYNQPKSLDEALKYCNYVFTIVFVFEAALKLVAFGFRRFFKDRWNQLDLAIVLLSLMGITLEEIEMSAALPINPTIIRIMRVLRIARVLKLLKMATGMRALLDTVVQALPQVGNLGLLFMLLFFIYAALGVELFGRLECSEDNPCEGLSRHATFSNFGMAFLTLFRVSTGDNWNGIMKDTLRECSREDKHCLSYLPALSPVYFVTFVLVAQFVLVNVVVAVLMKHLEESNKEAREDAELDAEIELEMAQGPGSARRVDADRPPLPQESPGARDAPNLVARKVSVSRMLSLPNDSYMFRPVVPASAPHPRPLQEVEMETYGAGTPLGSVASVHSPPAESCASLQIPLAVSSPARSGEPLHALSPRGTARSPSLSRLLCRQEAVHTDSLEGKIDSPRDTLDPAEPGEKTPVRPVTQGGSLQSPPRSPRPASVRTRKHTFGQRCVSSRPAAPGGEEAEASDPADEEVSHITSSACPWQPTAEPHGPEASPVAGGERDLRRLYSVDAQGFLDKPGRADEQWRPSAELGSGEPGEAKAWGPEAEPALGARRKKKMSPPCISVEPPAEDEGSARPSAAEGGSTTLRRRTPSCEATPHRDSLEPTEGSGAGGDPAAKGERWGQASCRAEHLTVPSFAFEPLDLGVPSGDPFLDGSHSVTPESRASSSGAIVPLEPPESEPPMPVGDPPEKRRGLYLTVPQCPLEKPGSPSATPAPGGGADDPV

[9] = target: T3, Acyl-homoserine lactone acylase PvdQ (Pseudomonas aeruginosa (strain LESB58), UniProt Q9I194); assay: P. aeruginosa PvdQ acylase inhibitors, dose response, biochemical, fluorescence, plate reader and imaging, cherry-picks (AID 493231)
T3 sequence (Q9I194 whole entry): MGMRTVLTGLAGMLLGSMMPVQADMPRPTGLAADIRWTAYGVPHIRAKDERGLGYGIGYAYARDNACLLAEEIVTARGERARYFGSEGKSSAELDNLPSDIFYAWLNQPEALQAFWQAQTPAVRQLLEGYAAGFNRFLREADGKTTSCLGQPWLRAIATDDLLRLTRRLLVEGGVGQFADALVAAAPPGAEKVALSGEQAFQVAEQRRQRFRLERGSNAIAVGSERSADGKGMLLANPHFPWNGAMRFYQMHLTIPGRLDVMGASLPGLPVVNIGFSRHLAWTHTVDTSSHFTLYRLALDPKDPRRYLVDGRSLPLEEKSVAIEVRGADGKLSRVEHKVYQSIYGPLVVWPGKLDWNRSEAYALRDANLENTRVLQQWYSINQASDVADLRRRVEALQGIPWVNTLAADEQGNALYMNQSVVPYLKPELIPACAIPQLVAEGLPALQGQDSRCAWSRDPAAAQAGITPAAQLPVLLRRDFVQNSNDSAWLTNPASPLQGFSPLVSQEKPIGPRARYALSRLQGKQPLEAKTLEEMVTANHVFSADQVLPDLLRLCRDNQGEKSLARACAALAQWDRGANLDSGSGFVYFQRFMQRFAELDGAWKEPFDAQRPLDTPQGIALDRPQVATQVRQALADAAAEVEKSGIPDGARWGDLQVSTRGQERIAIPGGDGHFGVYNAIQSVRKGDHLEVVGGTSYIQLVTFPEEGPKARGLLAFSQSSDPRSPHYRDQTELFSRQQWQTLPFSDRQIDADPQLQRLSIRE

[10] = target: T4, Estrogen receptor (Homo sapiens, UniProt P03372);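 also: potency for inhibiting coactivator peptide recruitment to the receptor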
T4 sequence (P03372 whole entry): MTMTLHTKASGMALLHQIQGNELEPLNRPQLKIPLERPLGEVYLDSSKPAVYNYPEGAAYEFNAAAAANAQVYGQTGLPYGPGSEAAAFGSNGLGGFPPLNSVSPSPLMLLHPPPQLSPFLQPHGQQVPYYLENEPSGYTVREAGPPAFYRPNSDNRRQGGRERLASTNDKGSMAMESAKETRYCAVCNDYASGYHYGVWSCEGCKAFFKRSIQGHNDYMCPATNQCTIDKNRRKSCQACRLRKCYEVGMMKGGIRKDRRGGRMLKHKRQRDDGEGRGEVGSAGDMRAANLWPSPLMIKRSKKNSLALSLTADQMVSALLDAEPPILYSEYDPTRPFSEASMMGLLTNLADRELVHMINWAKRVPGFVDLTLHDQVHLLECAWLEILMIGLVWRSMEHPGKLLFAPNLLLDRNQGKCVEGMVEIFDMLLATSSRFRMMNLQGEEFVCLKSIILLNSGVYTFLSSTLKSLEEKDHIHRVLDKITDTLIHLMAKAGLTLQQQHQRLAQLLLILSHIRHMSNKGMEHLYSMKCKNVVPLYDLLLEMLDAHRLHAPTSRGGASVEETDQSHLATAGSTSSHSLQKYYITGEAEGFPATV

[11] = target: T5, CAAX prenyl protease 2 (Saccharomyces cerevisiae S288c, UniProt Q03530); assay type: biochemical
T5 sequence (Q03530 whole entry): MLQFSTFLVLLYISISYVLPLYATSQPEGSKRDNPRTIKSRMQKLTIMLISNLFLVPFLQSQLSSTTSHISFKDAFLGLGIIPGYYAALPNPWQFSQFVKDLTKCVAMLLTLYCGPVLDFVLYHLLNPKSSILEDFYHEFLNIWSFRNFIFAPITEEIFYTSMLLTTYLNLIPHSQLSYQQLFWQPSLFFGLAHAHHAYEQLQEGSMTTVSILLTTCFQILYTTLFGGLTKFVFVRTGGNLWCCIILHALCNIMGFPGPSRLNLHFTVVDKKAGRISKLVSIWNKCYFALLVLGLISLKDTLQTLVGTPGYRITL

[12] = target: Induced myeloid leukemia cell differentiation protein Mcl-1 (Homo sapiens, UniProt Q07820); assay type: functional
Chain of Induced myeloid leukemia cell differentiation protein Mcl-1 (Q07820 whole entry): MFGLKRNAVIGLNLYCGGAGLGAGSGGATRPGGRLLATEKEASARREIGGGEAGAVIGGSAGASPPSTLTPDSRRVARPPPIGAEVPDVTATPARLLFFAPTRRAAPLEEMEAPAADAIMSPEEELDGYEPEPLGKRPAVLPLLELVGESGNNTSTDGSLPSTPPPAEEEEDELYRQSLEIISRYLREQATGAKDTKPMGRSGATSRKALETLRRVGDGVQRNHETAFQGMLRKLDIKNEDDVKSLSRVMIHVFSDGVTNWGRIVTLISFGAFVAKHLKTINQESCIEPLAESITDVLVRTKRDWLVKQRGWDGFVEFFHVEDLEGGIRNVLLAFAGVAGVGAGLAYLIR

[13] = NIH-3T3 fibroblast cytotoxicity, dose response, cytotoxicity control, cell-based, fluorescence, Alamar Blue, secondary assay (AID 2327); assay type: functional;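 also: NIH-3T3 mouse fibroblasts cultured with fluconazole at 8 µg/mL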
[14] = C. albicans growth with fluconazole, confirmation, fluorescence, retest (AID 2467); assay type: functional, cell-based
[15] = target: Large T antigen (Simian virus 40, UniProt P03070); assay type: functional, Betapolyomavirus macacae;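 also: Confirmatory-stage PubChem screen for compounds that inhibit SV40 T antigen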
Chain of Large T antigen (P03070 whole entry): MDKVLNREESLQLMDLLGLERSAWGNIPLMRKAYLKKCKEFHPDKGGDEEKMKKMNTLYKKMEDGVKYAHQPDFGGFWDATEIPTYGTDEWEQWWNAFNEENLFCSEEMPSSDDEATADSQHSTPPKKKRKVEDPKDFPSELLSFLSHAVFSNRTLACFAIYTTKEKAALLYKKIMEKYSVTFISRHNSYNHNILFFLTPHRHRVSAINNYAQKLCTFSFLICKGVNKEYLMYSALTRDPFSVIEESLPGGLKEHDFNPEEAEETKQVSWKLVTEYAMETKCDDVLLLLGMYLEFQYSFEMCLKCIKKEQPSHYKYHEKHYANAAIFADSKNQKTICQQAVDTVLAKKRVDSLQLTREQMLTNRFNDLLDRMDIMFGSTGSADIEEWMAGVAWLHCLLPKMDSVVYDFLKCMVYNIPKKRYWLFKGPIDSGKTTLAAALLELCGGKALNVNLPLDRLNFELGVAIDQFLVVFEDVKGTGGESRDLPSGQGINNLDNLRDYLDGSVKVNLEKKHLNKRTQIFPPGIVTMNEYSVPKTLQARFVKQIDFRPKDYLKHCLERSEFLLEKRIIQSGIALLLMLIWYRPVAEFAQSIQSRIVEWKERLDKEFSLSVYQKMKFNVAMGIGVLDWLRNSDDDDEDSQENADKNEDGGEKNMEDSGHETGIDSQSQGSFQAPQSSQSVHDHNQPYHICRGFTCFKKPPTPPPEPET

[16] = target: Cytochrome P450 2C19 (Homo sapiens, UniProt P33261); assay: qHTS Assay for Inhibitors and Substrates of Cytochrome P450 2C19. [Related pubchem assays: 410 ]; assay type: ADME; conditions: read-out: Potency
Chain of Cytochrome P450 2C19 (P33261 whole entry): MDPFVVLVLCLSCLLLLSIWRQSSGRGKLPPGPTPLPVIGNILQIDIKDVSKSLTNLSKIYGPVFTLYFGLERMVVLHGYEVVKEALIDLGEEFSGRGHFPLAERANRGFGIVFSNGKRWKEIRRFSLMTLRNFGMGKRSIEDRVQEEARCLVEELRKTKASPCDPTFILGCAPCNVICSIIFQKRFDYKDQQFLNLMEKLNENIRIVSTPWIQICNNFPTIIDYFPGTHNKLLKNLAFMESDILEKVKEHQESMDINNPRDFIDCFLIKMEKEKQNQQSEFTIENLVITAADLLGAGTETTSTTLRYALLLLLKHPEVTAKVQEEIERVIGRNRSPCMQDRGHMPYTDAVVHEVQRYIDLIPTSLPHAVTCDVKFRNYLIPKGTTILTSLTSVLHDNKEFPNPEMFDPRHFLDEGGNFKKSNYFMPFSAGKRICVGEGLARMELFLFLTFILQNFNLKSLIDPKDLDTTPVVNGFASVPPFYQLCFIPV

[17] = target: T6, Trace amine-associated receptor 1 (Homo sapiens, UniProt Q96RJ0); assay: Counterscreen for agonists of the human trace amine associated receptor 1 (hTAAR1): Fluorescence-based cell-based high throughput dose response assay to identify hTAAR1 agonist that also desensitize TAAR1 receptor response.; assay type: functional
T6 sequence (Q96RJ0 whole entry): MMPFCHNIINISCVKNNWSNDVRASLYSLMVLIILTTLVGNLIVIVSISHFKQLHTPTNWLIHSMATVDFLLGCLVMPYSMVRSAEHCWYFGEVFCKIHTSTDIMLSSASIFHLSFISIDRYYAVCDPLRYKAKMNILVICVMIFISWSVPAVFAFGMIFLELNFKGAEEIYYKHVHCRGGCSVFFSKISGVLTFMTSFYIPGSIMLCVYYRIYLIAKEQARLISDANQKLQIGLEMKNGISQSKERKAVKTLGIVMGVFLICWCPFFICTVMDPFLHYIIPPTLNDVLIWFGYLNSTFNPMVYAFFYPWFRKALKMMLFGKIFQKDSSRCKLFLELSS

[18] = target: T6, Trace amine-associated receptor 1; assay: Fluorescence-based cell-based high throughput dose response assay to identify agonists of the human trace amine associated receptor 1 (TAAR1).; assay type: functional
[19] = cells; assay type: functional, cell-based
[20] = cells; assay type: functional, cell-based; remark: listed apart in the source

O=C(NCc1ccc2c(c1)OCO2)C1CCN(S(=O)(=O)c2cccs2)CC1
IC50 [1]: 26.7 µM (active)

CCN(CC)C(=O)CSc1nc2c(sc(=S)n2-c2ccccc2)c(=O)n1-c1ccc(OC)cc1OC
IC50 [2]: 51.9 µM (active)

COC(=O)c1c(-c2ccc(C(C)(C)C)cc2)csc1NC(=O)C1C2CCC(O2)C1C(=O)O (stereo not drawn)
IC50 [1]: 79.5 µM (active)

COc1ccc2cc3cc(C(=O)N4CCCCC4C)oc3nc2c1 (stereo not drawn)
CC50 [3]: 42.4 µM (active) | IC50 [4]: 2.81 µM (active) | IC50 [5]: 35.1 µM (active) | IC50 [6]: 2.52 µM (active)

O=[N+]([O-])c1ccc(NN=Cc2ccccc2O)nc1
IC50 [7]: 46 µM (inactive)

Cc1oc(-c2cccc(Cl)c2)nc1CN1CCC(C(=O)NCc2ccco2)CC1
EC50 [8]: 5.8 µM (active)

O=C(NC1CC1)c1cc2cc3ccccc3nc2s1
AC50 [9]: 45.7 µM (active)

CC(=O)OC1CC(C)(C)N(OC(=O)c2ccc(N)cc2)C(C)(C)C1
IC50 [10]: 26.3 µM (active)

COc1ccc(N2CCN(C(=O)CN(Cc3ccc(Cl)cc3)S(C)(=O)=O)CC2)cc1
EC50 [8]: 11.3 µM (active)

O=C(CN1CCC(NC(=O)c2ccccc2)CC1)NCc1ccccc1F
IC50 [1]: 39.3 µM (active)

COc1ccc(OC)c(Cc2nnc(CCC(=O)N3CCN(C4CCCC4)CC3)o2)c1
AC50 [11]: 7.48 µM (active)

Nc1cccc(C2=Nc3cccc4cccc(c34)N2)c1
IC50 [12]: 3 µM (active)

CNC(=S)Nc1sc2c(c1C(=O)OC)CCC2
IC50 [12]: 1.48 µM (active)

CCn1c(SCC(=O)c2ccc(CNC(C)=O)o2)nnc1-c1cccs1
IC50 [10]: 42.7 µM (not active)

O=C(CCC1COc2ccccc2O1)NCC1COc2ccccc2O1 (stereo not drawn)
EC50 [8]: 1.77 µM (active)

CC(C)c1ccc2oc(-c3ccc(NC(=O)c4nc[nH]n4)cc3)nc2c1
CC50 [3]: > 50 µM (active) | EC50 [13]: > 160 µM (inactive) | IC50 [5]: 42.2 µM (active) | EC50 [14]: 0.04 µM (active)

O=[N+]([O-])c1ccc(N2CCCCC2)nc1
AC50 [9]: 3.98 µM (active)

COc1ccc(CN2C(=O)NC(=O)/C(=C/c3ccc([N+](=O)[O-])o3)C2=O)cc1
IC50 [12]: 3.22 µM (active) | IC50 [15]: 71.7 µM (active)

CC12CC3OS(=O)OC3CC3C4C(C(OCc5ccccc5)C31)C42 (stereo not drawn)
AC50 [16]: 0.251 µM (inconclusive)

O=P(Nc1ccccc1Cl)(c1ccccc1)c1nc2c(s1)CCCC2 (stereo not drawn)
EC50 [8]: 5.95 µM (active)

O=C(N[C@H](C(=O)N1CCC[C@H]1C(=O)NCCc1ccccc1Cl)c1ccccc1)c1ccccc1
IC50 [17]: 5.99 µM (active) | EC50 [18]: 3.78 µM (active) | EC50 [19]: > 29.9 µM (inactive) | IC50 [20]: > 29.9 µM (inactive)

CN1C(=O)/C(=C/c2cccc(Cl)c2)Sc2ccc(C(=O)N3CCOCC3)cc21
AC50 [11]: 5.96 µM (active)

O=C(CNCCc1ccccc1)N1CCc2ccccc2C1
IC50 [17]: 5.52 µM (active) | EC50 [18]: 1.2 µM (active) | EC50 [19]: > 29.9 µM (inactive) | IC50 [20]: > 29.9 µM (inactive)

O=C(O)CCc1ccc(-c2cccs2)n1CCc1ccccc1
IC50 [17]: 5.93 µM (active) | EC50 [18]: 0.62 µM (active) | EC50 [19]: > 29.9 µM (inactive) | IC50 [20]: > 29.9 µM (inactive)

CCOC(=O)c1c(NC(=O)CSc2nnc(CNC(=O)c3ccco3)n2C)sc2c1CCC2
IC50 [10]: > 50 µM (not active)

COCCN(C(=O)C(C)C)c1nnc(-c2cccc(C)c2)s1
CC50 [3]: > 50 µM (active) | IC50 [5]: 37.4 µM (active)

O=C(O)c1cccc(Nc2nc(-c3cccnc3)nc3ccccc23)c1
IC50 [1]: 79.2 µM (active)

Cc1nnn(-c2nonc2N)c1C(=O)NNC(=O)c1ccc(Cl)c(Cl)c1
IC50 [17]: > 29.9 µM (inactive) | EC50 [18]: 5.05 µM (active) | EC50 [19]: > 29.9 µM (inactive) | IC50 [20]: > 29.9 µM (inactive)
